Laboratory results published in US10392404B2, “Compounds and compositions as kinase inhibitors” (NOVARTIS AG, priority 2014, dated 2019).

Experiments:
b-Raf (V600E) = biological target: T1, b-Raf (V600E) (Homo sapiens, UniProt P15056, V600E); test: In vitro Raf activity determination (Alpha Screen, biotinylated kinase-dead MEK1 substrate), B-Raf; assay type: biochemical; settings: b-Raf (V600E) approximately 4 pM; ATP 10 μM; pre-incubation 60 minutes; reaction 3 hours at room temperature
T1 construct: made in house
T1 sequence (P15056 whole entry V600E): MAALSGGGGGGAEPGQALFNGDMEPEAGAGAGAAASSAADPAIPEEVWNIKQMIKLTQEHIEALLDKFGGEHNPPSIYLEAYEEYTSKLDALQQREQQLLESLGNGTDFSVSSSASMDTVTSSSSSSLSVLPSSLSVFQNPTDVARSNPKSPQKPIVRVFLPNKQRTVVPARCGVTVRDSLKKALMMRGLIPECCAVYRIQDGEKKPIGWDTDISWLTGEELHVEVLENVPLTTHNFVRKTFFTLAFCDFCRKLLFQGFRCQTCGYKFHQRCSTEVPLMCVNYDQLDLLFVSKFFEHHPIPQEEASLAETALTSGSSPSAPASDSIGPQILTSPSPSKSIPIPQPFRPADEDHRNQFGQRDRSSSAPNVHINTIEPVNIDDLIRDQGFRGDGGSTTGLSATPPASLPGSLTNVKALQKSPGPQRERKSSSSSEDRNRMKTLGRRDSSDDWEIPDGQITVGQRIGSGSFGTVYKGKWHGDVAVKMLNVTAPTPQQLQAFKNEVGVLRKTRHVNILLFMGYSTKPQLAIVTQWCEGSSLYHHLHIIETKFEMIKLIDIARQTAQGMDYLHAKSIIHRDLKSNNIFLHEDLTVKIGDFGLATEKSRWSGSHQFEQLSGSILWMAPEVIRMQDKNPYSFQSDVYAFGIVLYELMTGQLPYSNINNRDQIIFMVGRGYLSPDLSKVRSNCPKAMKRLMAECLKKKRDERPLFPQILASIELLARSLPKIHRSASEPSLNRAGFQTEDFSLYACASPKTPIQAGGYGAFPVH
Procedure: (§1) Full length MEK1 with an inactivating K97R ATP binding site mutation is utilized as a RAF substrate. The MEK1 cDNA was subcloned with an N-terminal (his)6 tag into a vector for E. Coli expression. The MEK1 substrate was purified from E. Coli lysate by nickel affinity chromatography followed by anion exchange. The final MEK1 preparation was biotinylated (Pierce EZ-Link Sulfo-NHS-LC-Biotin) and concentrated.
(§2) Assay Materials: Assay buffer is 50 mM Tris, pH 7.5, 15 mM MgCl2, 0.01% Bovine Serum Albumin (BSA) and 1 mM dithiothreitol (DTT); Stop buffer is 60 mM ethylenediaminetetraacetic acid (EDTA) and 0.01% Tween® 20; b-Raf (V600E), active; biotinylated Mek, kinase dead; Alpha Screen detection kit (available from PerkinElmer™, #6760617R); Anti phospho-MEK1/2 (available from Cell Signaling Technology, Inc. #9121); 384 well low volume assay plates (White Greiner® plates).
(§3) Assay conditions: b-Raf (V600E) approximately 4 pM; c-Raf approximately 4 nM; biotinylated Mek, kinase dead approximately 10 nM; ATP 10 μM for BRAF (V600E) and 1 μM for CRAF; Pre-incubation time with compounds 60 minutes at room temperature; Reaction time 1 or 3 hours at room temperature.
(§4) Assay protocol: Raf and biotinylated Mek (kinase dead) were combined at 2× final concentrations in assay buffer (50 mM Tris, pH 7.5, 15 mM MgCl2, 0.01% BSA and 1 mM DTT) and dispensed […] per well in assay plates (Greiner white 384 well assay plates #781207) containing […] of 40× of a Raf kinase inhibitor test compound diluted in 100% DMSO. The plate was incubated for 60 minutes at room temperature. The Raf kinase activity reaction was started by the addition of […] per well of 2×ATP diluted in assay buffer. After 3 hours (b-Raf(V600E)) or 1 hour (c-Raf). The reactions were stopped and the phosphorylated product was measured using a rabbit anti-p-MEK (Cell Signaling, #9121) antibody and the Alpha Screen IgG (ProteinA) detection Kit (PerkinElmer #6760617R), by the addition of […] to the well of a mixture of the antibody (1:2000 dilution) and detection beads (1:2000 dilution of both beads) in Stop/bead buffer (25 mM EDTA, 50 mM Tris, pH 7.5, 0.01% Tween20). The additions were carried out under dark conditions to protect the detection beads from light. A lid was placed on top of the plate and incubated for 1 hour at room temperature, after which the luminescence was read on a PerkinElmer Envision instrument. The concentration of each compound for 50% inhibition (IC50) was calculated by non-linear regression using XL Fit data analysis software.

C-RAF = biological target: T2, C-RAF (Homo sapiens, UniProt P04049, Y340E/Y341E); test: In vitro Raf activity determination (Alpha Screen, biotinylated kinase-dead MEK1 substrate), C-Raf; assay type: biochemical; settings: c-Raf approximately 4 nM; ATP 1 μM; pre-incubation 60 minutes; reaction 1 hour at room temperature
T2 construct: His tag (implied by nickel chromatography) (cleaved yes); StrepII tag (cleaved yes); made in house; host or cells: Sf9 insect cells (baculovirus), CRAF and h14-3-3 zeta co-expressed; MEK1 substrate from E. coli
T2 sequence (P04049 whole entry Y340E/Y341E): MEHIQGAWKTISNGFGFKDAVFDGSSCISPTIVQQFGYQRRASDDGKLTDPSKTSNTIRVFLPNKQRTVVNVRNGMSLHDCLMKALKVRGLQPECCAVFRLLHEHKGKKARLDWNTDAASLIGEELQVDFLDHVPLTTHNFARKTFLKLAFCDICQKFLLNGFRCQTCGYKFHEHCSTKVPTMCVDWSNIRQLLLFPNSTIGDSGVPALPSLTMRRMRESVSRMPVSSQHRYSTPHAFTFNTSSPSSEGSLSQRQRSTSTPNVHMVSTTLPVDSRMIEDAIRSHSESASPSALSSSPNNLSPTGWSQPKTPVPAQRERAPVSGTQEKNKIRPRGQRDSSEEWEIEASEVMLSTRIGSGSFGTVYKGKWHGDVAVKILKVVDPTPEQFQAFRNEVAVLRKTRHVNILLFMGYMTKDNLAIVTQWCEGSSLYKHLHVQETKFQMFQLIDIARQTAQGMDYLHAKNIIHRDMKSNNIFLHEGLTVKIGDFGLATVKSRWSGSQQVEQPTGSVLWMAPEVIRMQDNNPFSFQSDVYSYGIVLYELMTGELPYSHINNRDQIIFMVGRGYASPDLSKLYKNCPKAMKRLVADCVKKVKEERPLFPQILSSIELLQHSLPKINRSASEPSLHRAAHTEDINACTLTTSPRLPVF
T2 sequence (P63104 whole entry partner): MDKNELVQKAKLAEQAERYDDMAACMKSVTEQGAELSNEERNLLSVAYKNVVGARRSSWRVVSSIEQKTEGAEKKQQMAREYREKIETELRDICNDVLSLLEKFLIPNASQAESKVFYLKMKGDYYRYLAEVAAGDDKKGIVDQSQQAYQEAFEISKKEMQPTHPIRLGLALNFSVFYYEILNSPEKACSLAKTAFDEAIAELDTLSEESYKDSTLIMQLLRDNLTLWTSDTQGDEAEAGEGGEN
From the text: CRAF cDNA was subcloned as full length protein, with Y340E and Y341E activating mutations, into a baculovirus expression vector for Sf9 insect cell expression. h14-3-3 zeta cDNA was subcloned into a baculovirus expression vector for SF9 insect cell expression. Sf9 cells co-expressing both proteins were lysed and subjected to immobilized nickel chromatography and eluted with Imidazole. A second column (StrepII binding column) was used and eluted with desthiobiotin. Protein Tags were removed using Prescission enzyme and the protein was further purified using a flowthrough step to remove tags.
C-Raf TR refers to a truncated C-Raf protein, a Δ1-324 deletion mutant. C-Raf FL refers to the full-length C-Raf protein.
as §1, §2, §3, §4

| SMILES | IC50 (b-Raf (V600E)) [nM] | IC50 (C-RAF) [nM] |
| --- | --- | --- |
| Cc1ncc(NC(=O)c2ccnc(C(C)(C)C#N)c2)cc1-c1cnc(-c2ccnnc2)c(C#N)c1 [Example 115] | 70.6 | 11.5 |
| Cc1ccc(NC(=O)c2cccc(C(F)(F)F)c2)cc1-c1cnc(NC(C)C)c(C#N)c1 [Example 18, N-(3-(5-cyano-6-(isopropylamino)pyridin-3-yl)-4-methylphenyl)-3-(trifluoromethyl) benzamide] | 3.44 | 0.386 |
| Cc1ncc(NC(=O)c2ccnc(C(C)(C)C#N)c2)cc1-c1cnc(OC(C)C)c(C#N)c1 [Example 96, N-(5′-cyano-6′-isopropoxy-2-methyl-[3,3′-bipyridin]-5-yl)-2-(2-cyanopropan-2-yl)isonicotinamide] | 11.9 | 3.53 |
| Cc1ncc(NC(=O)c2ccnc(C(C)(C)C#N)c2)cc1-c1cnc(-c2cccnc2)c(C#N)c1 [Example 108, N-(3′-cyano-2″- methyl-[3,2′:5′,3″- terpyridin]-5″-yl)-2-(2-cyanopropan-2-yl)isonicotinamide] | 13.7 | 2.66 |
| Cc1ncc(NC(=O)c2ccnc(C(C)(C)C#N)c2)cc1-c1cnc(N2CC(C)(O)C2)c(C#N)c1 [Example 30, N-(5′-cyano-6′-(3-hydroxy-3-methylazetidin-1-yl)-2-methyl-[3,3′-bipyridin]-5-yl)-2-(2-cyanopropan-2-yl) isonicotinamide] | 28.8 | 3.69 |
| Cc1ccc(NC(=O)c2ccnc(C(C)(C)C#N)c2)cc1-c1cnc(N2CC(C)(O)C2)c(C#N)c1 [Example 29, N-(3-(5-cyano-6-(3-hydroxy-3-methylazetidin-1-yl)pyridin-3-yl)-4-methylphenyl)-2-(2-cyanopropan-2-yl)isonicotinamide] | 4.05 | 0.671 |
| Cc1ncc(NC(=O)c2cccc(C(F)(F)F)c2)cc1-c1cnc(C2CCOCC2)c(C#N)c1 [Example 128] | 1.34 | 0.202 |
| Cc1ccc(NC(=O)c2cccc(C(F)(F)F)c2)cc1-c1cnc(NC2CC2)c(C#N)c1 [Example 17, N-(3-(5-cyano-6-(cyclopropylamino)pyridin-3-yl)-4-methylphenyl)-3-(trifluoromethyl) benzamide] | 2.28 | 0.323 |
| Cc1ncc(NC(=O)c2ccnc(C(C)(C)O)c2)cc1-c1cnc(NC2CCOCC2)c(C#N)c1 [Example 170, N-(5′-cyano-2-methyl-6′-((tetrahydro-2H-pyran-4-yl)amino)-[3,3′-bipyridin]-5-yl)-2-(2-hydroxypropan-2-yl)isonicotinamide] | 12.1 | 3.16 |
| Cc1ncc(NC(=O)c2ccnc(C(C)(C)C#N)c2)cc1-c1cnc(N2CCNCC2)c(C#N)c1 [Example 71, N-(5′-cyano-2-methyl-6′-(piperazin-1-yl)-[3,3′-bipyridin]-5-yl)-2-(2-cyanopropan-2-yl)isonicotinamide] | 4.03 | 1.97 |
| Cc1ncc(NC(=O)c2cccc(C(F)(F)F)c2)cc1-c1cnc(N2CCS(=O)(=O)CC2)c(C#N)c1 [Example 85, N-(5′-cyano-6′-(1,1-dioxidothiomorpho-lino)-2-methyl-[3,3′-bipyridin]-5-yl)-3-(trifluoromethyl) benzamide] | 1.33 | 0.227 |
| Cc1ncc(NC(=O)c2ccnc(C(C)(C)C#N)c2)cc1-c1cnc(NC2CC2)c(C#N)c1 [Example 82, N-(5′-cyano-6′-(cyclopropylamino)-2-methyl-[3,3′-bypyridin]-5-yl)-2-(2-cyanopropan-2-yl)isonicotinamide] | 10.8 | 2.04 |

Now from value to compound:

| IC50 (b-Raf (V600E)) [nM] | IC50 (C-RAF) [nM] | SMILES |
| --- | --- | --- |
| 0.397 | 0.0967 | Cc1ccc(NC(=O)c2cnnc(C(F)(F)F)c2)cc1-c1cnc(N2CCOCC2)c(C#N)c1 [Example 208, N-(3-(5-cyano-6-morpholinopyridin-3-yl)-4-methylphenyl)-6-(trifluoromethyl) pyridazine-4-carboxamide] |
| 11.2 | 1.15 | Cc1ncc(NC(=O)c2ccnc(S(C)(=O)=O)c2)cc1-c1cnc(N(C)C)c(C#N)c1 [Example 271, N-(5′-cyano-6′-(dimethylamino)-2-methyl-[3,3′-bipyridin]-5-yl)-2-(methylsulfonyl) isonicotinamide] |
| 404 | 30.8 | Cc1ncc(NC(=O)c2cc(C3CC3)nn2C)cc1-c1cnc(N(C)C)c(C#N)c1 [Example 266, N-(5′-cyano-6′-(dimethylamino)-2-methyl-[3,3′-bipyridin]-5-yl)-3-cyclopropyl-1-methyl-1H-pyrazole-5-carboxamide] |
| 5.78 | 1.55 | Cc1ccc(NC(=O)c2cc(C(C)(C)O)ccn2)cc1-c1cnc(N2CC(C)(O)C2)c(C#N)c1 [Example 236, N-(3-(5-cyano-6-(3-hydroxy-3-methylazetidin-1-yl)pyridin-3-yl)-4-methylphenyl)-4-(2-hydroxypropan-2-yl)picolinamide] |
| 1.18 | 0.158 | Cc1ccc(NC(=O)c2cc(C(C)C)on2)cc1-c1cnc(N(C)C)c(C#N)c1 [Example 258, N-(3-(5-cyano-6-(dimethylamino)pyridin-3-yl)-4-methylphenyl)-5-isopropylisoxazole-3-carboxamide] |
| 12.9 | 1.36 | Cc1cc(CC(=O)Nc2ccc(C)c(-c3cnc(N(C)C)c(C#N)c3)c2)on1 [Example 257, N-(3-(5-cyano-6-(dimethylamino)pyridin-3-yl)-4-methylphenyl)-2-(3-methylisoxazol-5-yl)acetamide] |
| 0.939 | 0.183 | Cc1ccc(NC(=O)c2ccnc(C3(C#N)CC3)c2)cc1-c1cnc(N2CC(C)(O)C2)c(C#N)c1 [Example 220, N-(3-(5-cyano-6-(3-hydroxy-3-methylazetidin-1-yl)pyridin-3-yl)-4-methylphenyl)-2-(1-cyanocyclopropyl) isonicotinamide] |
| 1.51 | 0.192 | COCCNc1ncc(-c2cc(NC(=O)c3ccnc(C(F)F)c3)ccc2C)cc1C#N [Example 178, N-(3-(5-cyano-6-((2-methoxyethyl)amino)pyridin-3-yl)-4-methylphenyl)-2-(difluoromethyl) isonicotinamide] |
| 9.83 | 1.03 | Cc1ncc(NC(=O)c2cc(C(C)(C)F)ccn2)cc1-c1cnc(N2CC(C)(O)C2)c(C#N)c1 [Example 243, N-(5′-cyano-6′-(3-hydroxy-3-methylazetidin-1-yl)-2-methyl-[3,3′-bipyridin]-5-yl)-4-(2-fluoropropan-2-yl)picolinamide] |
| 0.94 | 0.169 | COCCNc1ncc(-c2cc(NC(=O)c3ccnc(C4(C#N)CC4)c3)ccc2C)cc1C#N [Example 177, N-(3-(5-cyano-6-((2-methoxyethyl)amino)pyridin-3-yl)-4-methylphenyl)-2-(1-cyanocyclopropyl) isonicotinamide] |
| 15.8 | 1.96 | Cc1ncc(NC(=O)c2cc(C(C)(C)C#N)ccn2)cc1-c1cnc(N2CC(C)(O)C2)c(C#N)c1 [Example 231, N-(5′-cyano-6′-(3-hydroxy-3-methylazetidin-1-yl)-2-methyl-[3,3′-bipyridin]-5-yl)-4-(2-cyanopropan-2-yl)picolinamide] |
| 2 | 0.409 | COCCNc1ncc(-c2cc(NC(=O)c3cc(C(F)(F)F)ccn3)ccc2C)cc1C#N [Example 228, N-(3-(5-cyano-6-((2-methoxyethyl)amino)pyridin-3-yl)-4-methylphenyl)-4-(trifluoromethyl) picolinamide] |
